Experiments:
D-Ala-D-Ala ligase [1] = biological target: T1, D-Ala-D-Ala ligase (Escherichia coli, UniProt P07862); assay: Stopped flow fluorescence quenching studies of nucleotide binding to ligase; settings: for Kd: partially closed complex, product of Kd1 and Kd2, read-out: final (overall) Kd
Protocol: We have discovered a significant fluorescence quenching upon binding of ATP and ADP, which we have exploited to examine mechanistic features of ligase. We have carried out stopped flow studies to look at the binding of ATP and ADP to ligase. These studies were carried out at 4° C. We observe a single exponential fluorescent quenching which is completed in <20 ms. […] This confirms our previous hypothesis about ligase, namely that the enzyme undergoes conformational changes that are an important and integral part of its enzymatic mechanism. This enzyme appears to fall into the category of “induced fit”.
The enzyme undergoes a conformational change to form the partially closed complex EA*. […] For ADP the conformational change increases the affinity of the nucleotide seven-fold for the partially closed complex, with respect to the initial collision complex, leading to an overall Kd of 50 μM. […] To dissociate the ligand, the enzyme has to relax back to the open form. […] In some cases, it can be advantageous for the inhibitor to trigger a further conformational change, perhaps the closure of the omega loop of domain D, leading to a fully closed form of the enzyme.
Stopped flow studies have added to the understanding of the mechanism by which ligase binds ligands, and have confirmed previous suspicions about “induced fit” mechanism. Determining the affinity of high affinity inhibitors (low nM) will be difficult by equilibrium binding methods or steady state enzyme kinetics. Stopped flow studies may well be the only way that the affinity of high affinity inhibitors can be determined with any degree of confidence. The studies can be carried out, for example, using the methods described by Eccleston, J. F. “Stopped-flow Spectrophotometric Techniques” in Spectrophotometry and Spectrofluorimetry a Practical Approach, Ed. D. A. Harris & C. L. Bashford, IRL Press, 1987, p. 137-164.

[2] = biological target: D-Ala-D-Ala ligase omega loop (D domain) (Escherichia coli, UniProt P07862); assay: Proteolysis (trypsin) assay of omega loop closure; assay type: biochemical
From the text: (§1) We have developed an in vitro assay to look at the closure of the omega loop (i.e., the D domain). The closure of the omega loop is probed by proteolysis.

D-Ala-D-Ala ligase [3] = biological target: T1, D-Ala-D-Ala ligase; assay: Affinity for D-Ala-D-Ala ligase relative to ATP (method not given); assay type: binding; settings: given in brackets after ATP
From the text: as §1

D-Ala-D-Ala ligase [4] = biological target: T1, D-Ala-D-Ala ligase; assay: D-Ala-D-Ala ligase IC50 determination (PK/LDH coupled assay); assay type: biochemical; settings: control in 1× core buffer; read-out: value (IC50 or Ki) for D-Ala-D-Ala ligase inhibition
From the text: Inhibition of D-Ala-D-Ala ligase can be assayed for using the pyruvate kinase/lactate dehydrogenase (PK/LDH) assay described in Example 2. In the bacterial cell wall synthesis process, the ligase catalyzes the conversion of ATP to ADP concurrent with the ligation of two D-alanine residues. PK then regenerates ATP from the ADP thus created simultaneously with the conversion of phosphopyruvate to pyruvate. LDH catalyzes the reduction of pyruvate to lactate by converting NADH to NAD^+. By monitoring the production rate of NAD^+, D-Ala-D-Ala ligase activity can be ascertained.
The purine derivatives of Example 1 were dissolved in dimethylsulfoxide (DMSO) at a concentration of 100 mM on the day of screening, using a vortex mixer if necessary for dissolution. The solutions were kept at room temperature until screening was completed.
A 10 mM NADH (Sigma) stock solution was prepared fresh on the day of screening by dissolving 32 μmol NADH in 3.2 ml double-distilled water. The NADH solution was kept on ice. […]
At t=18-19 minutes, the substrate solution was taken from 25° C. to a Spectromax® UV-vis spectrophotometer. At t=20 minutes, within a 30 second timeframe, 125 μl of substrate solution was added to each well of columns 1-4, and the absorbance at 340 nm was read. […]

[5] = together with a D-Ala site binding molecule (phosphinate, D-Ala-D-Ala or cycloserine)

Row | SMILES | increase in affinity by the conformational change (partially closed vs initial collision complex) (D-Ala-D-Ala ligase [1]; stopped flow, 4° C.) | Kd (D-Ala-D-Ala ligase [1]; stopped flow, 4° C.) [µM] | omega loop closure (protection from trypsin proteolysis) [2, 5] | further results
1 | Nc1ncnc2c1ncn2[C@@H]1O[C@H](COP(=O)(O)OP(=O)(O)O)[C@@H](O)[C@H]1O [ADP] | seven | 50 | stabilize the omega loop closure | affinity for D-Ala-D-Ala ligase relative to ATP (D-Ala-D-Ala ligase [1]; ADP vs ATP): three; net dissociation rate constant (k−2) (D-Ala-D-Ala ligase [1]; stopped flow, 4° C.): 72 s⁻¹
2 | Nc1ncnc2c1ncn2[C@@H]1O[C@H](COP(=O)(O)OP(=O)(O)NP(=O)(O)O)[C@@H](O)[C@H]1O [AMPPNP] |  |  | does not support the omega loop closure | 
3 | Nc1ncnc2c1ncn2[C@@H]1O[C@H](COP(=O)(O)OP(=O)(O)OP(=O)(O)O)[C@@H](O)[C@H]1O [ATP, adenosine triphosphate] | 3.2 fold | 157 | stabilize the omega loop closure | koff (D-Ala-D-Ala ligase [1]; stopped flow, 4° C., read-out: net dissociation rate constant (k−2)): 126 s⁻¹; Kd (D-Ala-D-Ala ligase [3]): 300 µM; omega loop closure (protection from trypsin proteolysis) ([2]; nucleotide alone, no D-Ala site binding molecule): cannot close the omega loop
4 | Nc1ncnc2c1ncn2[C@@H]1O[C@H](COP(=O)(O)OP(=O)(O)OP(O)(O)=S)[C@@H](O)[C@H]1O [ATPgS] |  |  | stabilize the omega loop closure | 
5 | N[C@@H]1CON=C1O [Cycloserine, D-cycloserine] |  |  |  | IC50 (D-Ala-D-Ala ligase [4]): ~150 µM

Source: patent publication US20030119061A1, “Structure-based drug design methods for identifying D-Ala-D-Ala ligase inhibitors as antibacterial drugs” (priority 2001, published 2003)
